From ChEMBL document CHEMBL5113393, “Discovery of 2-((2-methylbenzyl)thio)-6-oxo-4-(3,4,5-trimethoxyphenyl)-1,6-dihydropyrimidine-5-carbonitrile as a novel and effective bromodomain and extra-terminal (BET) inhibitor for the treatment of sepsis” (Eur J Med Chem, 2022)

Key:
[1] = target: T1, Bromodomain-containing protein 4 (Homo sapiens, UniProt O60885); assay: Inhibition of BRD4 BD1 (57 to 168 residues) (unknown origin) transfected in Escherichia coli (DE3) using FAM-labeled JQ-1 as fluorescent substrate at 100 uM incubated for 30 mins by competitive fluorescence polarization method relative to control
[2] = target: T1, Bromodomain-containing protein 4; assay: Inhibition of BRD4 BD2 (352 to 457 residues) (unknown origin) transfected in Escherichia coli (DE3) using FAM-labeled JQ-1 as fluorescent substrate at 100 uM incubated for 30 mins by competitive fluorescence polarization method relative to control
[3] = system: RAW264.7; assay: Antiinflammatory activity in mouse RAW264.7 cells assessed as inhibition of LPS-induced NO production at 10 uM preincubated for 2 hrs followed by LPS stimulation and measured after 22 hrs by Griess reagent-based assay relative to control; assay type: functional; conditions: time 24 hrs
[4] = target: T1, Bromodomain-containing protein 4; assay: Inhibition of BRD4 BD1 (unknown origin) using FAM-labeled JQ-1 as fluorescent substrate assessed as inhibition constant incubated for 30 mins by competitive fluorescence polarization method
[5] = system: RAW264.7; assay: Antiinflammatory activity in mouse RAW264.7 cells assessed as inhibition of LPS-induced NO production at 5 uM preincubated for 2 hrs followed by LPS stimulation and measured after 22 hrs by Griess reagent-based assay relative to control; assay type: functional; conditions: time 24 hrs

SMILES	inhibition [1] [%]	inhibition [2] [%]	inhibition at 10 µM [3] [%]	Ki [4] [µM]	inhibition at 5 µM [5] [%]
N#Cc1c(-c2ccc(OC(F)(F)F)cc2)nc(SCc2ccccc2Cl)[nH]c1=O	45.8	17.1	–	–	–
COc1cccc(-c2nc(SCc3ccccc3Cl)[nH]c(=O)c2C#N)c1OC	50.7	51.3	–	–	–
CCOc1ccc(-c2nc(SCc3ccccc3Cl)[nH]c(=O)c2C#N)cc1OCC	56.8	55.9	–	–	–
COc1ccc(-c2nc(SCc3ccccc3Cl)[nH]c(=O)c2C#N)cc1C	53.1	55.1	–	–	–
COc1ccc(OC)c(-c2nc(SCc3ccccc3Cl)[nH]c(=O)c2C#N)c1	51.6	43	–	–	–
COc1cc(-c2nc(SCc3cccc(C)c3C)[nH]c(=O)c2C#N)cc(OC)c1OC	–	–	78.2	1.73	51.8
COc1cc(-c2nc(SCc3ccccc3F)[nH]c(=O)c2C#N)cc(OC)c1OC	–	–	94.1	0.87	33.7
COc1cc(-c2nc(SCc3ccccc3Cl)[nH]c(=O)c2C#N)ccc1OC(F)F	54.4	59.2	–	–	–
COc1ccc(-c2nc(SCc3ccccc3Cl)[nH]c(=O)c2C#N)cc1	44.1	18.8	–	–	–
COc1ccc(-c2nc(SCc3ccccc3Cl)ncc2C#N)cc1OC	–	–	–	4.93	–
COc1ccc(-c2nc(NCc3ccccc3)[nH]c(=O)c2C#N)cc1OC	–	–	–	16.3	–
N#Cc1c(-c2ccc3c(c2)OCO3)nc(SCc2ccccc2Cl)[nH]c1=O	45.3	44.3	–	–	–
CNC(=O)c1cccc(-c2nc(SCc3ccccc3Cl)[nH]c(=O)c2C#N)c1	66.4	65.9	–	–	–
N#Cc1c(-c2ccc3c(c2)OCCO3)nc(SCc2ccccc2Cl)[nH]c1=O	55.5	53.8	–	–	–
COc1ccc(-c2nc(SCCc3ccccc3Cl)[nH]c(=O)c2C#N)cc1OC	–	–	–	7.58	–
COc1cc(-c2nc(SCc3ccccc3Cl)[nH]c(=O)c2C#N)cc(O)c1OC	69.3	63.4	–	1.95	–
COc1cccc(-c2nc(SCc3ccccc3Cl)[nH]c(=O)c2C#N)c1	45.3	45.1	–	–	–
COc1cc(-c2nc(SCc3ccccc3Cl)[nH]c(=O)c2C#N)cc(Cl)c1OC	59.7	59.6	–	–	–
COc1ccc(-c2nc(SCc3ccccc3Cl)n(C)c(=O)c2C#N)cc1OC	–	–	14.9	18.3	5.19
CCOc1ccc(-c2nc(SCc3ccccc3Cl)[nH]c(=O)c2C#N)cc1OC	64.7	55.7	–	–	–
COc1cc(OC)cc(-c2nc(SCc3ccccc3Cl)[nH]c(=O)c2C#N)c1	40.3	47.2	–	–	–
COc1ccc(-c2nc(SCc3ccccc3Cl)[nH]c(=O)c2C#N)cc1OC	65.1	68.7	–	3.23	–
COc1cc(-c2nc(SCc3ccccc3C(F)(F)F)[nH]c(=O)c2C#N)cc(OC)c1OC	–	–	81	1.19	62.4
COC(=O)c1cc(-c2nc(SCc3ccccc3Cl)[nH]c(=O)c2C#N)ccc1OC	42.9	48	–	–	–
COc1ccc(-c2nc(SCc3ccccc3Cl)[nH]c(=O)c2C#N)c(OC)c1OC	53.1	51.7	–	–	–
COc1cc(-c2nc(SCc3ccc(C)cc3)[nH]c(=O)c2C#N)cc(OC)c1OC	–	–	87.4	1.38	65.3
COc1ccccc1-c1nc(SCc2ccccc2Cl)[nH]c(=O)c1C#N	44.3	47.5	–	–	–
COc1cc(-c2nc(SCc3cc(C)cc(C)c3)[nH]c(=O)c2C#N)cc(OC)c1OC	–	–	92.1	1.48	69.3
CCOc1cc(-c2nc(SCc3ccccc3Cl)[nH]c(=O)c2C#N)ccc1OC	65.3	62.4	–	–	–
COc1cc(-c2nc(SCc3cccc(C)c3)[nH]c(=O)c2C#N)cc(OC)c1OC	–	–	75.5	1.25	14.9
